From US8367716B2 (priority 2003, dated 2013)
In brackets after ≈: the same amount, converted by molar mass.

System: S. aureus strain DK825
Assay: microbe, parasite or virus in culture
Format: cell-based, Staphylococcus aureus
Settings: S. aureus DK825 (MRSA)
Experimental: Antibiotic susceptibility testing. Susceptibility tests were performed in Sensititre microtitre plates according to the manufacturer's instructions (Microbiology Systems).
For Penicillin, the MIC was over 8 µg/mL.

Same assay, conditions: Staphylococcus aureus, MRSA
`O=C(O)c1cn(C2CC2)c2cc(N3CCNCC3)c(F)cc2c1=O` [Ciprofloxacin] showed an MIC of over 2 µg/mL. With `CC[C@H]1OC(=O)[C@H](C)[C@@H](O[C@H]2C[C@@](C)(OC)[C@@H](O)[C@H](C)O2)[C@H](C)[C@@H](O[C@@H]2O[C@H](C)C[C@H](N(C)C)[C@H]2O)[C@](C)(OC)C[C@@H](C)C(=O)[C@H](C)[C@@H](O)[C@]1(C)O` [Clarithromycin] the MIC was over 4 µg/mL. With `C[C@H]1COc2c(N3CCN(C)CC3)c(F)cc3c(=O)c(C(=O)O)cn1c23` [Levofloxacin] the MIC was 2 µg/mL (≈ 5.53 µM). `CC[C@H]1OC(=O)[C@H](C)[C@@H](O[C@H]2C[C@@](C)(OC)[C@@H](O)[C@H](C)O2)[C@H](C)[C@@H](O[C@@H]2O[C@H](C)C[C@H](N(C)C)[C@H]2O)[C@](C)(O)C[C@@H](C)C(=O)[C@H](C)[C@@H](O)[C@]1(C)O` [Erythromycin] gave an MIC of over 4 µg/mL. Molecule `CCC[C@@H]1C[C@@H](C(=O)N[C@@H]([C@H]2O[C@H](SC)[C@H](O)[C@@H](O)[C@H]2O)[C@H](C)Cl)N(C)C1` [Clindamycin] has an MIC of over 2 µg/mL. `CO[C@H]1/C=C/O[C@@]2(C)Oc3c(C)c(O)c4c(O)c(c(/C=N/N5CCN(C)CC5)c(O)c4c3C2=O)NC(=O)/C(C)=C\C=C\[C@H](C)[C@H](O)[C@@H](C)[C@@H](O)[C@@H](C)[C@H](OC(C)=O)[C@@H]1C` [Rifampin] gave an MIC of over 2 µg/mL. Work on `CC1(C)S[C@@H]2[C@H](NC(=O)[C@H](N)c3ccccc3)C(=O)N2[C@H]1C(=O)O` [Ampicillin] yielded an MIC of 4 µg/mL (≈ 11.4 µM). In the case of `CN[C@H](CC(C)C)C(=O)N[C@H]1C(=O)N[C@@H](CC(N)=O)C(=O)N[C@H]2C(=O)N[C@H]3C(=O)N[C@H](C(=O)N[C@H](C(=O)O)c4cc(O)cc(O)c4-c4cc3ccc4O)[C@H](O)c3ccc(c(Cl)c3)Oc3cc2cc(c3O[C@@H]2O[C@H](CO)[C@@H](O)[C@H](O)[C@H]2O[C@H]2C[C@](C)(N)[C@H](O)[C@H](C)O2)Oc2ccc(cc2Cl)[C@H]1O` [Vancomycin], the MIC is reported as under 0.5 µg/mL. `Cc1onc(-c2ccccc2)c1C(=O)N[C@@H]1C(=O)N2[C@@H]1SC(C)(C)[C@@H]2C(=O)O` [Oxacillin] gave an MIC of over 2 µg/mL. For `COc1c(N2C[C@@H]3CCCN[C@@H]3C2)c(F)cc2c(=O)c(C(=O)O)cn(C3CC3)c12` [Moxifloxacin], the MIC was 2 µg/mL (≈ 4.98 µM).

System: S. aureus strain 15981
Assay: not given
Settings: S. aureus 15981, hyperbiofilm human clinical strain; cited from earlier work
In the case of `COc1cccc(OC)c1C(=O)N[C@@H]1C(=O)N2[C@@H]1SC(C)(C)[C@@H]2C(=O)O` [MET], the antibiotic susceptibility is given as “susceptible”. In the case of `CC1(C)S[C@@H]2[C@H](NC(=O)[C@H](N)c3ccc(O)cc3)C(=O)N2[C@H]1C(=O)O` [AMX], the antibiotic susceptibility is listed as “susceptible”. In the case of `CC[C@H]1OC(=O)[C@H](C)[C@@H](O[C@H]2C[C@@](C)(OC)[C@@H](O)[C@H](C)O2)[C@H](C)[C@@H](O[C@@H]2O[C@H](C)C[C@H](N(C)C)[C@H]2O)[C@](C)(O)C[C@@H](C)C(=O)[C@H](C)[C@@H](O)[C@]1(C)O` [Erythromycin], the antibiotic susceptibility is given as “susceptible”. For `C[C@@H]1O[C@@H]1P(=O)(O)O` [FOF], the antibiotic susceptibility is listed as “susceptible”. In the case of `CN[C@H](CC(C)C)C(=O)N[C@H]1C(=O)N[C@@H](CC(N)=O)C(=O)N[C@H]2C(=O)N[C@H]3C(=O)N[C@H](C(=O)N[C@H](C(=O)O)c4cc(O)cc(O)c4-c4cc3ccc4O)[C@H](O)c3ccc(c(Cl)c3)Oc3cc2cc(c3O[C@@H]2O[C@H](CO)[C@@H](O)[C@H](O)[C@H]2O[C@H]2C[C@](C)(N)[C@H](O)[C@H](C)O2)Oc2ccc(cc2Cl)[C@H]1O` [Vancomycin], the antibiotic susceptibility is given as “susceptible”. For `C[C@H]1c2cccc(O)c2C(O)=C2C(=O)[C@]3(O)C(O)=C(C(N)=O)C(=O)[C@@H](N(C)C)[C@@H]3[C@@H](O)[C@@H]21` [DOX], the antibiotic susceptibility is given as “susceptible”.

System: S. aureus
Assay: Biofilm formation on polystyrene microtitre plates (crystal violet, O.D.570)
Format: cell-based, Staphylococcus aureus
Settings: DK825, 200 μM
Experimental: Effect of c-di-GMP on S. aureus biofilm formation. S. aureus strains were subcultured from glycerol stocks onto blood agar plates and incubated at 37° C. for 18 h. A single colony was inoculated into 5 ml TSB broth with a sterilized loop and incubated at 37° C. for 18 h with shaking at 250 rpm and until the O.D.660 reached 3.0 as measured spectrophotometrically using a spectrophotometer (SpectraMAX 250, Molecular Devices). Following incubation, the culture was diluted 1:250 with fresh TSB and a 200 μl of the diluted culture was transferred into wells of a flat-bottom polystyrene microtitre plate (Evergreen Scientific). […] In these biofilm experiments, similar volumes of 0.9% NaCl was added to a set of different wells representing the “untreated” control samples. The microtitre plates were then incubated statically at 37° C. for 24 h or 48 h. Following incubation, the supernatant was carefully discarded and the wells washed twice with 260 μl PBS. The plate was then kept for drying on a paper towel for 30 min after which 260 μl 0.1% crystal violet was added to each well and the plates incubated at room temperature for 30 min. The crystal violet was discarded and plate washed gently with water, the wells allowed to dry for 30 min then 260 μl DMSO was added to each well and gently agitated for 1 h and the O.D.570 measured by using a spectrophotometer (SpectraMAX 250, Molecular Devices). The results of these biofilm assays were based on data obtained from at least three independent colonies tested in duplicate.
In the case of `Nc1nc2c(ncn2[C@@H]2O[C@H](COP(=O)(O)O)[C@@H](O)[C@H]2O)c(=O)[nH]1` [5′-GMP, guanosine 5′-monophosphate, reference compound], the “effect on biofilm formation” value is reported as “no effect”.

Same assay, conditions: DK825, 200 μM, 24 h
For `Nc1nc2c(ncn2[C@@H]2O[C@@H]3COP(=O)(O)O[C@H]3[C@H]2O)c(=O)[nH]1` [cGMP, guanosine 3′, 5′-cyclic monophosphate, reference compound], the “reduction of biofilm formation” value was about 40%.
